Measurements from US5491155A, “Substituted thiadiazoles, compositions containing them and their use as antimicrobial and marine antifouling agents” (The Dow Chemical Company, priority 1994, dated 1996).
Values after ≈ are worked out from the molar mass of the structure shown. Like-named read-outs stand apart in the source and are kept apart here.

Assays:
Klebsiella pneumonias = experiment: MIC in nutrient agar, Klebsiella pneumonias; type: cell-based, Klebsiella pneumonias (ATCC 8308); conditions: Kp, 48 hours, read-out: Minimum Inhibitory Concentration (MIC)
Protocol: (§1) The minimum inhibitory concentration (MIC) for the compounds listed in Table I is determined for bacteria, using nutrient agar, and 7 yeast and fungi, using malt yeast agar. A one percent solution of the test compound is prepared in a mixture of acetone and water.
(§2) Nutrient agar is prepared at pH 6.8, representing a neutral medium, and at pH 8.2, representing an alkaline medium. The nutrient agars are prepared by adding 23 g of nutrient agar to one-liter of deionized water. In addition, the alkaline medium is prepared by adjusting a 0.04M solution of N-(tris-(hydroxymethyl)methyl)glycine buffered deionized water with concentrated sodium hydroxide to a pH of 8.5.
(§3) The test tubes containing the agar are cooled in a water bath until the temperature of the agar is 48° C. Then, an appropriate amount of the one percent solution of the test compound is added (except in the controls where no compound is added) to the respective test tubes so that the final concentrations are 500, 250, 100, 50, 25, 10, 2.5, 1.0 and zero parts per million of the test compound in the agar, thus having a known concentration of test compound dispersed therein. The contents of the test tubes are then transferred to respective petri plates. After drying for 24 hours, the petri plates containing nutrient agar are inoculated with bacteria and those containing malt yeast agar are inoculated with yeast and fungi.
(§4) The inoculation with bacteria is accomplished by using the following procedure. Twenty-four hour-cultures of each of the bacteria are prepared by incubating the respective bacteria in tubes containing nutrient broth for 24 hours at 30° C. in a shaker. Dilutions of each of the 24 hour-cultures are made so that nine separate suspensions (one for each of the nine test bacteria) are made, each containing 10^8 colony forming units (CFU) per mL of suspension of a particular bacteria. Aliquots of 0.3 mL of each of the bacterial suspensions are used to fill the individual wells of Steer's Replicator. For each microbial suspension, 0.3 mL was used to fill three wells (i.e., three wells of 0.3 mL each) so that for the nine different bacteria, 27 wells are filled. The Steer's Replicator is then used to inoculate both the neutral and alkaline pH nutrient agar petri plates.
(§5) The inoculated petri plates are incubated at 30° C. for 48 hours and then read to determine if the test compound which is incorporated into the agar prevented growth of the respective bacteria.
(§6) Table II lists the bacteria, yeast and fungi used in the MIC test described above along with their respective American Type Culture Collection (ATCC) identification numbers.
(§7) In Tables III and IV, the MIC values of the compounds described in Table I as compared to the MIC of a standard commercial preservative (with 1-(3-chloroalkyl)-3,5,7-triaza-1-azoniaadamantane chloride as the active agent and referred to in Tables III and IV as "STANDARD I") are set forth for the bacteria organisms and yeast/fungi organisms which are listed in Table II.

Pseudomonas aeruginosa = experiment: MIC in nutrient agar, Pseudomonas aeruginosa (Pa); type: cell-based, Pseudomonas aeruginosa (ATCC 10145); conditions: Pa, 48 hours, read-out: Minimum Inhibitory Concentration (MIC)
Protocol: as §1, §2, §3, §4, §5, §6, §7

Fusarium oxysporum = experiment: MIC in malt yeast agar, Fusarium oxysporum; type: cell-based, Fusarium oxysporum (ATCC 48112); conditions: Fo; malt yeast agar; 30° C.; 72 hours for fungi; read-out: Minimum Inhibitory Concentration (MIC)
Protocol: as §1
(§8) Malt yeast agar is prepared by adding 3 g yeast extract and 45 g malt agar per liter of deionized water. The specific agar is dispensed in 30 mL aliquots into 25×200 mm test tubes, capped and autoclaved for 15 minutes at 115° C.
as §3
(§9) The inoculation with the yeast and fungi is accomplished as follows. Cultures of yeast and fungi are incubated for seven days on malt yeast agar at 30° C. These cultures are used to prepare suspensions by the following procedure. A suspension of each organism is prepared by adding 10 mL of sterile saline and 10 microliters of octylphenoxy polyethoxy ethanol to the agar slant of yeast or fungi. The sterile saline/octylphenoxy polyethoxy ethanol solution is then agitated with a sterile swab to suspend the microorganism grown on the slant. Each resulting suspension is diluted into sterile saline (1 part suspension: 9 parts sterile saline). Aliquots of these dilutions are placed in individual wells of Steer's Replicator and petri plates inoculated as previously described. The petri plates are incubated at 30° C. and read after 48 hours for yeast and 72 hours for fungi.
as §6, §7

Candida albicans = experiment: MIC in malt yeast agar, Candida albicans; type: cell-based, Candida albicans (ATCC 10231); conditions: Ca; malt yeast agar; 30° C.; 48 hours for yeast; read-out: Minimum Inhibitory Concentration (MIC)
Protocol: as §1, §8, §3, §9, §6, §7

Proteus vulgaris = experiment: MIC in nutrient agar, Proteus vulgaris; type: cell-based, Proteus vulgaris (ATCC 881); conditions: Pv, 48 hours, read-out: Minimum Inhibitory Concentration (MIC)
Protocol: as §1, §2, §3, §4, §5, §6, §7

Staphylococcus aureus = experiment: MIC in nutrient agar, Staphylococcus aureus; type: cell-based, Staphylococcus aureus (ATCC 6538); conditions: Sa, 48 hours, read-out: Minimum Inhibitory Concentration (MIC)
Protocol: as §1, §2, §3, §4, §5, §6, §7

Bacillus subtilis = experiment: MIC in nutrient agar, Bacillus subtilis; type: cell-based, Bacillus subtilis (ATCC 8473); conditions: Bs, 48 hours, read-out: Minimum Inhibitory Concentration (MIC)
Protocol: as §1, §2, §3, §4, §5, §6, §7

Aureobasidium pullulan = experiment: MIC in malt yeast agar, Aureobasidium pullulan; type: cell-based, Aureobasidium pullulan (ATCC 16622); conditions: Ap; malt yeast agar; 30° C.; 72 hours for fungi; read-out: Minimum Inhibitory Concentration (MIC)
Protocol: as §1, §8, §3, §9, §6, §7

Enterobacter aerogenes = experiment: MIC in nutrient agar, Enterobacter aerogenes; type: cell-based, Enterobacter aerogenes (ATCC 13048); conditions: Klebsiella aerogenes, Ea, 30° C., 48 hours, read-out: Minimum Inhibitory Concentration (MIC)
Protocol: as §1, §2, §3, §4, §5, §6, §7

[1] = tested on: Pseudomonas aeruginosa (PRD-10); experiment: MIC in nutrient agar, Pseudomonas aeruginosa (PRD-10); type: cell-based, Pseudomonas aeruginosa (ATCC 15442); conditions: PRD, 48 hours, read-out: Minimum Inhibitory Concentration (MIC)
Protocol: as §1, §2, §3, §4, §5, §6, §7

Penicillium chrysogenum = experiment: MIC in malt yeast agar, Penicillium chrysogenum; type: cell-based, Penicillium chrysogenum (ATCC 9480); conditions: Pc; malt yeast agar; 30° C.; 72 hours for fungi; read-out: Minimum Inhibitory Concentration (MIC)
Protocol: as §1, §8, §3, §9, §6, §7

Aspergillus niger = experiment: MIC in malt yeast agar, Aspergillus niger; type: cell-based, Aspergillus niger (ATCC 16404); conditions: An; malt yeast agar; 30° C.; 72 hours for fungi; read-out: Minimum Inhibitory Concentration (MIC)
Protocol: as §1, §8, §3, §9, §6, §7

Escherichia coli = experiment: MIC in nutrient agar, Escherichia coli; type: cell-based, Escherichia coli (ATCC 11229); conditions: Ec, 48 hours, read-out: Minimum Inhibitory Concentration (MIC)
Protocol: as §1, §2, §3, §4, §5, §6, §7

Saccharomyces cerevisiae = experiment: MIC in malt yeast agar, Saccharomyces cerevisiae; type: cell-based, Saccharomyces cerevisiae (ATCC 4105); conditions: Sc, malt yeast agar, 30° C., 48 hours for yeast, read-out: Minimum Inhibitory Concentration (MIC)
Protocol: as §1, §8, §3, §9, §6, §7

Salmonella choleraesuis = experiment: MIC in nutrient agar, Salmonella choleraesuis; type: cell-based, Salmonella choleraesuis (ATCC 10708); conditions: Salmonella enterica, Sc, 48 hours, read-out: Minimum Inhibitory Concentration (MIC)
Protocol: as §1, §2, §3, §4, §5, §6, §7

Trichoderma viride = experiment: MIC in malt yeast agar, Trichoderma viride; type: cell-based, Trichoderma viride (ATCC 8678); conditions: Tv; malt yeast agar; 30° C.; 72 hours for fungi; read-out: Minimum Inhibitory Concentration (MIC)
Protocol: as §1, §8, §3, §9, §6, §7

Row | MIC (Klebsiella pneumonias; pH 6.8, 30° C.) | MIC (Klebsiella pneumonias; pH 8.2, 30° C.) | MIC (Pseudomonas aeruginosa; pH 6.8, 30° C.) | MIC (Pseudomonas aeruginosa; pH 8.2, 30° C.) | MIC (Fusarium oxysporum) | MIC (Candida albicans) | MIC (Proteus vulgaris; pH 6.8, 30° C.) | MIC (Proteus vulgaris; pH 8.2, 30° C.) | MIC (Staphylococcus aureus; pH 6.8, 30° C.) | MIC (Staphylococcus aureus; pH 8.2, 30° C.) | MIC (Bacillus subtilis; pH 6.8, 30° C.) | MIC (Bacillus subtilis; pH 8.2, 30° C.) | MIC (Aureobasidium pullulan) | MIC (Enterobacter aerogenes; pH 6.8) | MIC (Enterobacter aerogenes; pH 8.2) | MIC ([1]; pH 6.8, 30° C.) | MIC ([1]; pH 8.2, 30° C.) | MIC (Penicillium chrysogenum) | MIC (Aspergillus niger) | MIC (Escherichia coli; pH 6.8, 30° C.) | SMILES | further results
1 | 25 µg/mL (≈ 112 µM) | 50 µg/mL (≈ 223 µM) | 25 µg/mL (≈ 112 µM) | 100 µg/mL (≈ 447 µM) | < 10 µg/mL | < 10 µg/mL | < 10 µg/mL | 25 µg/mL (≈ 112 µM) | 25 µg/mL (≈ 112 µM) | 50 µg/mL (≈ 223 µM) | < 10 µg/mL | 25 µg/mL (≈ 112 µM) | < 10 µg/mL | 25 µg/mL (≈ 112 µM) | 100 µg/mL (≈ 447 µM) | < 10 µg/mL | 25 µg/mL (≈ 112 µM) | < 10 µg/mL | < 10 µg/mL | 25 µg/mL (≈ 112 µM) | N#CSCSc1nsnc1Cl [Example 3, 4-chloro-3-thiomethylthiocyanato-1,2,5,-thiadiazole] | MIC (Escherichia coli; pH 8.2, 30° C.): 50 µg/mL (≈ 223 µM); MIC (Saccharomyces cerevisiae): < 10 µg/mL; MIC (Salmonella choleraesuis; pH 6.8, 30° C.): 25 µg/mL (≈ 112 µM); MIC (Salmonella choleraesuis; pH 8.2, 30° C.): 50 µg/mL (≈ 223 µM); MIC (Trichoderma viride): < 10 µg/mL
2 | > 500 µg/mL | > 500 µg/mL | > 500 µg/mL | > 500 µg/mL | 250 µg/mL (≈ 780 µM) | 100 µg/mL (≈ 312 µM) | > 500 µg/mL | > 500 µg/mL | > 500 µg/mL | > 500 µg/mL | > 500 µg/mL | > 500 µg/mL | < 10 µg/mL | > 500 µg/mL | > 500 µg/mL | > 500 µg/mL | > 500 µg/mL | < 10 µg/mL | < 10 µg/mL | > 500 µg/mL | N#CSCCSc1nsnc1SCCSC#N [Example 5, Bis(thioethylthiocyanato)-1,2,5-thiadiazole] | MIC (Escherichia coli; pH 8.2, 30° C.): > 500 µg/mL; MIC (Saccharomyces cerevisiae): < 10 µg/mL; MIC (Salmonella choleraesuis; pH 6.8, 30° C.): > 500 µg/mL; MIC (Salmonella choleraesuis; pH 8.2, 30° C.): > 500 µg/mL; MIC (Trichoderma viride): > 500 µg/mL
3 | 100 µg/mL (≈ 384 µM) | 50 µg/mL (≈ 192 µM) | 250 µg/mL (≈ 960 µM) | 100 µg/mL (≈ 384 µM) | 25 µg/mL (≈ 96 µM) | 50 µg/mL (≈ 192 µM) | 25 µg/mL (≈ 96 µM) | 25 µg/mL (≈ 96 µM) | 25 µg/mL (≈ 96 µM) | 25 µg/mL (≈ 96 µM) | < 10 µg/mL | 25 µg/mL (≈ 96 µM) | < 10 µg/mL | 250 µg/mL (≈ 960 µM) | 250 µg/mL (≈ 960 µM) | 500 µg/mL (≈ 1920 µM) | 250 µg/mL (≈ 960 µM) | < 10 µg/mL | < 10 µg/mL | 50 µg/mL (≈ 192 µM) | N#CSCOc1nsnc1OCSC#N [Example 8, 3,4-Bis(thiocyanato-methyloxo)-1,2,5-thiadiazole] | MIC (Escherichia coli; pH 8.2, 30° C.): 100 µg/mL (≈ 384 µM); MIC (Saccharomyces cerevisiae): 25 µg/mL (≈ 96 µM); MIC (Salmonella choleraesuis; pH 6.8, 30° C.): 25 µg/mL (≈ 96 µM); MIC (Salmonella choleraesuis; pH 8.2, 30° C.): 50 µg/mL (≈ 192 µM); MIC (Trichoderma viride): 50 µg/mL (≈ 192 µM)
